Entries after “also recorded” stand apart in the source; their conditions may differ. Read-outs that look alike come from different tables or passages of the source. Values belong to the compound of their own block, whether it stands above or below them.
How the values were obtained:
[1] = tested on: human liver microsomes; assay type: in vitro ADME; settings: 100 μM desferrioxamine, Chelex 100-treated buffers, 0.5 nmol microsomal P450, 30 minutes
[2] = tested on: P450 2C19; settings: 50 mg/day for 14 days; in vivo mephenytoin oxidation; ref Chen et al., 2003; cited from earlier work
[3] = cats; ref Parton et al., 2000; cited from earlier work
[4] = various animals; ref Trnavsky and Zachar, 1975; cited from earlier work
[5] = dogs; ref Parton et al., 2000; cited from earlier work
[6] = humans; ref Trnavsky and Zachar, 1975; cited from earlier work
[7] = tested on: human liver microsomes; assay type: in vitro ADME
[8] = tested on: recombinant human P450s 2C8, 2C9, 2C19, 2D6, 2E1, and 3A4; settings: recombinant enzyme
[9] = humans; ref Hutt et al., 1986; cited from earlier work
[10] = fluorescence detection, aspirin after deacetylation

SMILES: CC(=O)N(O)CCCCCNC(=O)CCC(=O)N(O)CCCCCNC(=O)CCC(=O)N(O)CCCCCN [desferrioxamine]
- effect on formation of 2,3- and 2,5-DHBA [1]: did not inhibit but instead increased; also recorded: no inhibition

- product formation (2,3-DHBA or 2,5-DHBA) in the absence of NADPH [7]: No product formation
- maximum rate of 5-hydroxylation compared with salicylic acid ([7]; data not shown): approximately five times lower
- 2,5-DHBA formation with NADPH [7, 10]: detected
- concentrations of the products with recombinant P450s [8]: too low to quantitate
SMILES: CC(=O)Oc1ccccc1C(=O)O [Aspirin, acetylsalicylic acid]
- effect on P450 2C19 [2]: increase
- half-life [3]: 22 h
- half-life [4]: 1 to 38 h
- half-life [5]: 7.5 h
- half-life [6]: ~ 6 h

SMILES: O=C(O)CNC(=O)c1ccccc1O [salicyluric acid]
- share of the products of salicylic acid metabolism [9]: 20–65%

- product formation (2,3-DHBA or 2,5-DHBA) in the absence of NADPH [7]: not detected
- 2,3-DHBA formation with NADPH [7, 10]: detected
- 2,5-DHBA formation with NADPH [7, 10]: detected
SMILES: O=C(O)c1ccccc1O [salicylic acid]
- directly excreted [9]: 1–31%

From article PMC4414920 (European journal of pharmaceutical sciences : official …, 2015)
